From patent publication US10336709B2, “Lp-PLA2 inhibitors” (ABIDE THERAPEUTICS, INC., priority 2015, dated 2019) come the findings set out here.

In one assay the target is T1, ABHD6 (Mus musculus, UniProt Q8R2Y0).
T1 construct: Mouse brain membrane proteomes (50 μL, 1.0 mg/mL total protein concentration) were preincubated; from tissue; host or cells: mouse brain membrane fraction
T1 sequence (Q8R2Y0 1-336): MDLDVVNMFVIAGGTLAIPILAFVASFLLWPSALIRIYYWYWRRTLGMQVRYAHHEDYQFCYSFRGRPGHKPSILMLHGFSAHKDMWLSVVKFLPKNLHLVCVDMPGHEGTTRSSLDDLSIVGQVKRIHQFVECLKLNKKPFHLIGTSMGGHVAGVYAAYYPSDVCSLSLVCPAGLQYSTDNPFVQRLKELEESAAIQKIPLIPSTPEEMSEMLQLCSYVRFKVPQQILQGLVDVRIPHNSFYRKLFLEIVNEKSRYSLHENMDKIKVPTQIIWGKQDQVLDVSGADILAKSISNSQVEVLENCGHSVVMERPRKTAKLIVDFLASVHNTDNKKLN
The assay is described as follows: In vitro competitive activity-based protein profiling (HT-01 probe, gel band ABHD6). On the set-up: ABHD6 % at 100 μM: scale not given here. Particulars: mouse brain membrane proteomes; for pIC50: 30 min preincubation at 37° C. In kind it is biochemical. Here is the method:
(§1) Compounds are tested to assess their Lp-PLA2 and serine hydrolase activity using the following in vitro assays.
(§2) In Vitro Competitive Activity-Based Protein Profiling
(§3) Mouse brain membrane proteomes (50 μL, 1.0 mg/mL total protein concentration) were preincubated with varying concentrations of inhibitors at 37° C. After 30 min, HT-01 probe (1.0 μL, 50 μM in DMSO) was added and the mixture was incubated for another 30 min at room temperature. Reactions were quenched with SDS loading buffer (15 μL-4×) and run on SDS-PAGE gels. Following gel imaging, serine hydrolase activity was determined by measuring fluorescent intensity of gel bands corresponding to PLA2G7 and ABHD6 using ImageJ 1.49 k software.

Another assay addresses T2, Lp-PLA2 (Mus musculus, UniProt Q60963).
T2 construct: Mouse brain membrane proteomes (50 μL, 1.0 mg/mL total protein concentration) were preincubated; from tissue; host or cells: mouse brain membrane fraction
T2 sequence (Q60963 22-440): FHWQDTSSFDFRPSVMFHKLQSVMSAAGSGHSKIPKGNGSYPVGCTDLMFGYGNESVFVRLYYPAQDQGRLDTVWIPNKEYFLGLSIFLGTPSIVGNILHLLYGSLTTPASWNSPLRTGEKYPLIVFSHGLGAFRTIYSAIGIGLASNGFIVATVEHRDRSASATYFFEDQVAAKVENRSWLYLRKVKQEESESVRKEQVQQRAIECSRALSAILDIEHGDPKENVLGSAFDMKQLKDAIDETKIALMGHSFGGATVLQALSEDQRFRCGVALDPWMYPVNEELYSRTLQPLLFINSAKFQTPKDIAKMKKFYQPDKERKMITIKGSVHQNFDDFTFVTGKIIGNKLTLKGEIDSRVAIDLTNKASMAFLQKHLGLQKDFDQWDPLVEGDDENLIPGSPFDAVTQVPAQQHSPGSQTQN
In words: In vitro competitive activity-based protein profiling (HT-01 probe, gel band PLA2G7). The conditions noted are these: mouse brain membrane proteomes; for pIC50: 30 min preincubation at 37° C. Format: biochemical. On the set-up: Lp-PLA2 % at 100 μM: scale not given here. Here is the method:
as §1, §2, §3

Molecules are shown by their SMILES. pIC50: −log10 of the molar value.

Turning to `O=C(ON1C(=O)N[C@@H](Cc2ccc(C(F)(F)F)cc2)C1=O)N1CCN(c2cccc(C(=O)N3CCCCC3)c2Cl)CC1` [Example 22, (S)-2,5-dioxo-4-(4-(trifluoromethyl)benzyl)imidazolidin-1-yl 4-(2-chloro-3-(piperidine-1-carbonyl)phenyl)piperazine-1-carboxylate], the pIC50 on ABHD6 and on Lp-PLA2 was over 7.00 each time.

In the case of `CC(C)[C@@H]1NC(=O)N(OC(=O)N2CCN(c3cccc(C(=O)N4CCOCC4)c3Cl)CC2)C1=O` [Example 3, (S)-4-isopropyl-2,5-dioxoimidazolidin-1-yl 4-(2-chloro-3-(morpholine-4-carbonyl)phenyl)piperazine-1-carboxylate], the pIC50 at ABHD6 and on Lp-PLA2 was 6.00 to 7.00 each time.

On to `O=C(ON1C(=O)N[C@@H](Cc2ccccc2)C1=O)N1CCN(c2cccc(C(=O)N3CCCC3)c2Cl)CC1` [Example 7, (S)-4-benzyl-2,5-dioxoimidazolidin-1-yl 4-(2-chloro-3-(pyrrolidine-1-carbonyl)phenyl)piperazine-1-carboxylate], for which the pIC50 on ABHD6 and on Lp-PLA2 was over 7.00 throughout.

`CC(C)[C@@H]1NC(=O)N(OC(=O)N2CCN(c3cccc(C(=O)N4CCCC4)c3Cl)CC2)C1=O` [Example 1, (S)-4-isopropyl-2,5-dioxoimidazolidin-1-yl 4-(2-chloro-3-(pyrrolidine-1-carbonyl)phenyl)piperazine-1-carboxylate]: the figures for the pIC50 at ABHD6 and at Lp-PLA2 were over 7.00 and 6.00 to 7.00, respectively.

As for `O=C(ON1C(=O)N[C@@H](Cc2ccccc2)C1=O)N1CCN(c2cccc(C(=O)N3CCCCC3)c2)CC1` [Example 13, (S)-4-benzyl-2,5-dioxoimidazolidin-1-yl 4-(3-(piperidine-1-carbonyl)phenyl)piperazine-1-carboxylate], the pIC50 on ABHD6 and at Lp-PLA2 was over 7.00 in each case.

Take `O=C(O)c1cccc(N2CCN(C(=O)ON3C(=O)N[C@@H](Cc4ccccc4)C3=O)CC2)c1Cl` [Example 19, (S)-3-(4-((4-benzyl-2,5-dioxoimidazolidin-1-yloxy)carbonyl)piperazin-1-yl)-2-chlorobenzoic acid]: the pIC50 at ABHD6 and on Lp-PLA2 was under 6.00 each time.

As for `CC(C)[C@@H]1NC(=O)N(OC(=O)N2CCN(c3cccc(C(=O)N4CCCCC4)c3Cl)CC2)C1=O` [Example 2, (S)-4-isopropyl-2,5-dioxoimidazolidin-1-yl 4-(2-chloro-3-(piperidine-1-carbonyl)phenyl)piperazine-1-carboxylate], the pIC50 at ABHD6 and on Lp-PLA2 was 6.00 to 7.00 throughout.

Regarding `O=C(ON1C(=O)N[C@H](Cc2ccccc2)C1=O)N1CCN(c2cccc(C(=O)N3CCCC3)c2Cl)CC1` [Example 10, (R)-4-benzyl-2,5-dioxoimidazolidin-1-yl 4-(2-chloro-3-(pyrrolidine-1-carbonyl)phenyl)piperazine-1-carboxylate], the pIC50 at ABHD6 and at Lp-PLA2 was over 7.00 each time.

`O=C(ON1C(=O)N[C@@H](Cc2ccccc2)C1=O)N1CCN(c2cc(C(=O)N3CCCCC3)ccc2Cl)CC1` [Example 17, (S)-4-benzyl-2,5-dioxoimidazolidin-1-yl 4-(2-chloro-5-(piperidine-1-carbonyl)phenyl)piperazine-1-carboxylate]: the pIC50 at ABHD6 and at Lp-PLA2 was over 7.00 in each case.

`O=C(ON1C(=O)N[C@@H](Cc2ccccc2)C1=O)N1CCN(c2ccc(C(=O)N3CCCCC3)cc2Cl)CC1` [Example 15, (S)-4-benzyl-2,5-dioxoimidazolidin-1-yl 4-(2-chloro-4-(piperidine-1-carbonyl)phenyl)piperazine-1-carboxylate]: the pIC50 at ABHD6 and on Lp-PLA2 was over 7.00 each time.

Turning to `CN1CCN(C(=O)c2cccc(N3CCN(C(=O)ON4C(=O)N[C@@H](Cc5ccccc5)C4=O)CC3)c2Cl)CC1` [Example 14, (S)-4-benzyl-2,5-dioxoimidazolidin-1-yl 4-(2-chloro-3-(4-methylpiperazine-1-carbonyl)phenyl)piperazine-1-carboxylate], the pIC50 at ABHD6 and at Lp-PLA2 was over 7.00 in each case.

As to `NC(=O)c1cccc(N2CCN(C(=O)ON3C(=O)N[C@@H](Cc4ccccc4)C3=O)CC2)c1Cl` [Example 18, (S)-4-benzyl-2,5-dioxoimidazolidin-1-yl 4-(3-carbamoyl-2-chlorophenyl)piperazine-1-carboxylate], the “ABHD6 % at 100 μM” value at ABHD6 is given as 25% at 100 μM. In addition, at Lp-PLA2, the “Lp-PLA2 % at 100 μM” value is recorded as 25% at 100 μM.

Take `CN(C)C(=O)c1cccc(N2CCN(C(=O)ON3C(=O)N[C@@H](Cc4ccccc4)C3=O)CC2)c1Cl` [Example 16, (S)-4-benzyl-2,5-dioxoimidazolidin-1-yl 4-(2-chloro-3-(dimethylcarbamoyl)phenyl)piperazine-1-carboxylate]: the pIC50 on ABHD6 and on Lp-PLA2 was over 7.00 throughout.

On to `O=C(ON1C(=O)N[C@@H](Cc2ccccc2)C1=O)N1CCN(c2cccc(C(=O)N3CCOCC3)c2Cl)CC1` [Example 9, (S)-4-benzyl-2,5-dioxoimidazolidin-1-yl 4-(2-chloro-3-(morpholine-4-carbonyl)phenyl)piperazine-1-carboxylate], for which the figures for the pIC50 at ABHD6 and on Lp-PLA2 were 6.00 to 7.00 and over 7.00, respectively.

For `O=C(ON1C(=O)N[C@H](Cc2ccccc2)C1=O)N1CCN(c2cccc(C(=O)N3CCCCC3)c2Cl)CC1` [Example 11, (R)-4-benzyl-2,5-dioxoimidazolidin-1-yl 4-(2-chloro-3-(piperidine-1-carbonyl)phenyl)piperazine-1-carboxylate], the pIC50 at ABHD6 and on Lp-PLA2 was over 7.00 each time.

`COc1ccc(C[C@@H]2NC(=O)N(OC(=O)N3CCN(c4cccc(C(=O)N5CCCCC5)c4Cl)CC3)C2=O)cc1` [Example 24, (S)-4-(4-methoxybenzyl)-2,5-dioxoimidazolidin-1-yl 4-(2-chloro-3-(piperidine-1-carbonyl)phenyl)piperazine-1-carboxylate]: the pIC50 at ABHD6 and on Lp-PLA2 was over 7.00 each time.

Turning to `CC(C)[C@H]1NC(=O)N(OC(=O)N2CCN(c3cccc(C(=O)N4CCCC4)c3Cl)CC2)C1=O` [Example 4, (R)-4-isopropyl-2,5-dioxoimidazolidin-1-yl 4-(2-chloro-3-(pyrrolidine-1-carbonyl)phenyl)piperazine-1-carboxylate], the pIC50 on ABHD6 is 6.00 to 7.00. The same compound gave an inhibition at 10 µM at Lp-PLA2 of 75%.

In the case of `CC(C)[C@H]1NC(=O)N(OC(=O)N2CCN(c3cccc(C(=O)N4CCCCC4)c3Cl)CC2)C1=O` [Example 5, (R)-4-isopropyl-2,5-dioxoimidazolidin-1-yl 4-(2-chloro-3-(piperidine-1-carbonyl)phenyl)piperazine-1-carboxylate], the pIC50 at ABHD6 was 6.00 to 7.00. The compound also registered an inhibition at 10 µM at Lp-PLA2 of 75%.

On to `O=C(ON1C(=O)N[C@H](Cc2ccccc2)C1=O)N1CCN(c2cccc(C(=O)N3CCOCC3)c2Cl)CC1` [Example 12, (R)-4-benzyl-2,5-dioxoimidazolidin-1-yl 4-(2-chloro-3-(morpholine-4-carbonyl)phenyl)piperazine-1-carboxylate], for which the pIC50 at ABHD6 and at Lp-PLA2 was over 7.00 throughout.

For the compound `O=C(ON1C(=O)N[C@@H](Cc2ccc(Cl)cc2)C1=O)N1CCN(c2cccc(C(=O)N3CCCCC3)c2Cl)CC1` [Example 23, (S)-4-(4-chlorobenzyl)-2,5-dioxoimidazolidin-1-yl 4-(2-chloro-3-(piperidine-1-carbonyl)phenyl)piperazine-1-carboxylate], the “ABHD6 % at 100 μM” value on ABHD6 came out at 50% at 100 μM. The “Lp-PLA2 % at 100 μM” value at Lp-PLA2 is given as 50% at 100 μM.

Take `O=C(ON1C(=O)N[C@@H](Cc2ccccc2)C1=O)N1CCN(c2cccc(C(=O)N3CCCCC3)c2Cl)CC1` [Example 8, (S)-4-benzyl-2,5-dioxoimidazolidin-1-yl 4-(2-chloro-3-(piperidine-1-carbonyl)phenyl)piperazine-1-carboxylate]: the pIC50 at ABHD6 was 6.00 to 7.00; at Lp-PLA2, over 7.00.

Consider `O=C(ON1C(=O)N[C@@H](Cc2ccccc2)C1=O)N1CCCN(c2cccc(C(=O)N3CCCCC3)c2Cl)CC1` [Example 21, (S)-4-benzyl-2,5-dioxoimidazolidin-1-yl 4-(2-chloro-3-(piperidine-1-carbonyl)phenyl)-1,4-diazepane-1-carboxylate], for which the inhibition at 10 µM at ABHD6 (at 10 μM) and at Lp-PLA2 was 100% throughout.

The pIC50 is −log10 of the IC50, conventionally taken in molar units. The term inhibition denotes the relative decrease from the control value, in per cent.
